Test results from US9657025B2, “Pyrazolopyrimidine compounds” (University Health Network, priority 2013, dated 2017).
Structures can show the parent of a compound that is named as a salt.

Tested on: Ovarian TICs (Ovarian 2393A)
Assay: Ovarian tumor-initiating cell growth inhibition, Alamar Blue assay
Format: cell-based
Settings: 144 h, read-out: Tumor Initiating Cell GI50 Range Ovarian 2393A
Excerpt: Materials and Methods: Non-tissue or tissure cultured treated T-75 flask and 96-well plates were purchased from VWR. Vitamin B-27 supplement, MEM NEAA (minimum essential medium non-essential amino acids), sodium pyruvate, L-glutamine, N2 supplement, penicillin-streptomycin and fungizone/amphotericin B were obtained from Invitrogen. Lipid mixture, heparin and EGF were purchased from Sigma; bFGF from BD Biosciences. Tumor Initiating Cells (TICs) from colon were routinely maintained using non-tissue cultured treated T-75 flasks in DMEM:F12 medium containing 0.2×B-27 supplement, 4 ug/ml heparin, 1×MEM NEAA, 1×sodium pyruvate, 1 mM glutamine, 10 pg/ul bFGF, 20 pg/ul EGF, 1× N2 supplement, lipid mixture, penicillin-streptomycin and fungizone/amphotericin B. Ovarian TICs were routinely maintained using tissue cultured treated T-75 flasks in DMEM:F12 medium containing 1×B-27 supplement, 4 ug/ml heparin, 20 pg/ul bFGF, 20 pg/ul EGF and penicillin-streptomycin. Assay Protocol: Compounds described herein were dissolved in DMSO and further diluted in cell culture medium for GI50 determination. […] Cell viability was assessed by Alamar Blue assay: 10 ul of Alamar Blue was added into each well. After 4 hours incubation at 37° C., fluorescence was recorded at excitation 544 and emission 590. GI50 (Growth inhibition) was calculated using GraphPad Prism 4.0 software. […]

Cc1cc(-c2cnn3c(NC[C@H]4C[C@@](C)(O)C4)cc(Oc4cccnc4)nc23)ccc1C(=O)NC1CC1 [Example A4, N-cyclopropyl-4-(7-((((1s,3s)-3-hydroxy-3-methylcyclobutyl)methyl)amino-5-(pyridin-3-yloxy)pyrazolo[1,5-a]pyrimidin-3-yl)-2-methylbenzamide hydrochloride and itsfreebase] was tested, and the GI50 was < 0.1 µM.
